Measurements published in patent EP4725957A1, “GROUP OF CYCLIC ALKALINE LIPOPEPTIDE COMPOUNDS, AND PREPARATION METHOD THEREFOR AND USE THEREOF” (Institute of Medicinal Biotechnology, Chinese Academy of …, priority 2023, dated 2024).
Converted amounts (≈) assume the structure as drawn. Numbered stars: 1 amine (or outer) side, 2 acyl side, 3 side chain; on linkers, the order of the positions; unused ones are H or OH. Bridge positions count the residues as written; N and C are the ends. Square brackets hold non-standard residues; d marks the D form. Peptide text beside a SMILES is read from it. * marks the point of attachment. X3 = O=C([C@@H](Cc1ccc(CS(=O)(=O)O)cc1)N[*:1])[*:2]; Dab(CH2SO3H) = N[C@@H](CCNCS(=O)(=O)O)C(=O)O; Heptanoyl(6-Me) = CC(C)CCCCC(=O)*; Dab = NCC[C@H](N)C(=O)O

Key:
Assay type in all cases: cell-based
[1] = test system: Acinetobacter baumannii ABA19-1; conditions: ABA19-1
In short: (§1)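 Minimal inhibitory concentrations are measured following CLSI microdilution guidance in MH broth. Test concentrations run from 64 down to 0.03 mg/L in doubling steps, with a final bacterial load of (2-4) × 10^5 CFU/mL and 16-20 h incubation at 35-37°C.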

[2] = test system: Klebsiella pneumoniae KPN+19-15; conditions: KPN+19-15
In short: as §1

[3] = test system: Pseudomonas aeruginosa ATCC 27853; conditions: ATCC 27853
In short: as §1

[4] = test system: Klebsiella pneumoniae ATCC BAA-1705 (KPC); conditions: ATCC BAA-1705
In short: as §1

[5] = test system: Acinetobacter baumannii NCTC 13304 (OXA-27); conditions: NCTC 13304
In short: as §1

[6] = test system: Escherichia coli ATCC BAA-2340 (KPC); conditions: ATCC BAA-2340
In short: as §1

[7] = test system: Pseudomonas aeruginosa PAE19-3; conditions: PAE19-3
In short: as §1

[8] = test system: Escherichia coli ATCC BAA-2523; conditions: ATCC BAA-2523
In short: as §1

[9] = Nephrotoxicity assay: in vitro cytotoxicity of HK-2 cells by CCK-8 assay; conditions: human, HK-2 cells (human renal), 72 h incubation with drug-containing medium
In short: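 HK-2 human renal cells in RPMI-1640 with 10% FBS were exposed to compounds at final 12.5–500 µg/mL for 72 h, then CCK-8 for 3 h and OD450 read. Viability was normalised to drug-free wells; IC50 came from logarithmic regression over three repeats, with polymyxin B as positive drug.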

Row | SMILES | MIC [1] [µg/mL] | MIC [2] [µg/mL] | MIC [3] [µg/mL] | MIC [4] [µg/mL] | MIC [5] [µg/mL] | MIC [6] [µg/mL] | MIC [7] [µg/mL] | MIC [8] [µg/mL] | IC50 at 72 h [9] [µg/mL]
1 | CC(C)CCCCC(=O)N[C@@H](CCN)C(=O)N[C@H](C(=O)N[C@H](CO)C(=O)N[C@H]1CCNC(=O)[C@H]([C@@H](C)O)NC(=O)[C@H](CCN)NC(=O)[C@H](CCN)NC(=O)[C@H]([C@@H](C)O)NC(=O)[C@@H](Cc2ccc(CS(=O)(=O)O)cc2)NC(=O)[C@H](CCN)NC1=O)[C@@H](C)O [Compound 107, 6-methylheptanoyl-Dab-Thr-D-Ser-ring(4-10)[Dab-Dab-D-Phe(4-CH2SO3H)-Thr-Dab-Dab-Thr]] ({Heptanoyl(6-Me)}-[Dab]T[dS][Dab][Dab][X3]T[Dab][Dab]T; lactam 4-C) | 0.06 (≈ 0.0477 µM) | 0.125 (≈ 0.0993 µM) | 0.25 (≈ 0.199 µM) | 0.125 (≈ 0.0993 µM) | 0.06 (≈ 0.0477 µM) | 0.03 (≈ 0.0238 µM) | 0.25 (≈ 0.199 µM) | 0.03 (≈ 0.0238 µM) | > 500
2 | CC(C)CCCCC(=O)N[C@@H](CCNCS(=O)(=O)O)C(=O)N[C@H](C(=O)N[C@H](CO)C(=O)N[C@H]1CCNC(=O)[C@H]([C@@H](C)O)NC(=O)[C@H](CCN)NC(=O)[C@H](CCN)NC(=O)[C@H]([C@@H](C)O)NC(=O)[C@@H](Cc2ccccc2)NC(=O)[C@H](CCN)NC1=O)[C@@H](C)O [Compound 108, 6-methylheptanoyl-Dab(CH2SO3H)-Thr-D-Ser-ring(4-10)[Dab-Dab-D-Phe-Thr-Dab-Dab-Thr]] ({Heptanoyl(6-Me)}-[Dab(CH2SO3H)]T[dS][Dab][Dab][dF]T[Dab][Dab]T; lactam 4-C) | 0.25 (≈ 0.199 µM) | 0.125 (≈ 0.0993 µM) | 0.25 (≈ 0.199 µM) | 0.125 (≈ 0.0993 µM) | 0.06 (≈ 0.0477 µM) | 0.06 (≈ 0.0477 µM) | 0.5 (≈ 0.397 µM) | 0.06 (≈ 0.0477 µM) | > 500
3 | CC(C)CCCCC(=O)N[C@@H](CCN)C(=O)N[C@H](C(=O)N[C@H](CO)C(=O)N[C@H]1CCNC(=O)[C@H]([C@@H](C)O)NC(=O)[C@H](CCN)NC(=O)[C@H](CCN)NC(=O)[C@H]([C@@H](C)O)NC(=O)[C@@H](Cc2ccccc2)NC(=O)[C@H](CCNCS(=O)(=O)O)NC1=O)[C@@H](C)O [Compound 109, 6-methylheptanoyl-Dab-Thr-D-Ser-ring(4-10)[Dab-Dab(CH2SO3H)-D-Phe-Thr-Dab-Dab-Thr]] ({Heptanoyl(6-Me)}-[Dab]T[dS][Dab][Dab(CH2SO3H)][dF]T[Dab][Dab]T; lactam 4-C) | 0.25 (≈ 0.199 µM) | 0.125 (≈ 0.0993 µM) | 0.25 (≈ 0.199 µM) | 0.125 (≈ 0.0993 µM) | 0.06 (≈ 0.0477 µM) | 0.06 (≈ 0.0477 µM) | 0.5 (≈ 0.397 µM) | 0.06 (≈ 0.0477 µM) | > 500
4 | CC(C)CCCCC(=O)N[C@@H](CCN)C(=O)N[C@H](C(=O)N[C@H](CO)C(=O)N[C@H]1CCNC(=O)[C@H]([C@@H](C)O)NC(=O)[C@H](CCN)NC(=O)[C@H](CCNCS(=O)(=O)O)NC(=O)[C@H]([C@@H](C)O)NC(=O)[C@@H](Cc2ccccc2)NC(=O)[C@H](CCN)NC1=O)[C@@H](C)O [Compound 110, 6-methylheptanoyl-Dab-Thr-D-Ser-ring(4-10)[Dab-Dab-D-Phe-Thr-Dab(CH2SO3H)-Dab-Thr]] ({Heptanoyl(6-Me)}-[Dab]T[dS][Dab][Dab][dF]T[Dab(CH2SO3H)][Dab]T; lactam 4-C) | 0.25 (≈ 0.199 µM) | 0.125 (≈ 0.0993 µM) | 0.25 (≈ 0.199 µM) | 0.125 (≈ 0.0993 µM) | 0.06 (≈ 0.0477 µM) | 0.06 (≈ 0.0477 µM) | 0.5 (≈ 0.397 µM) | 0.06 (≈ 0.0477 µM) | > 500
